This note sets out measurements from ChEMBL document CHEMBL5291721, “A preclinical secondary pharmacology resource illuminates target-adverse drug reaction associations of marketed drugs” (Nat Commun, 2023).

Targets include D(3) dopamine receptor (Homo sapiens, UniProt P35462); Vasopressin V1a receptor (Homo sapiens, UniProt P37288); Melanocortin receptor 3 (Homo sapiens, UniProt P41968).
The next experiment concerns the target T1, Thromboxane A2 receptor (Homo sapiens, UniProt P21731).
T1 sequence (P21731 whole entry): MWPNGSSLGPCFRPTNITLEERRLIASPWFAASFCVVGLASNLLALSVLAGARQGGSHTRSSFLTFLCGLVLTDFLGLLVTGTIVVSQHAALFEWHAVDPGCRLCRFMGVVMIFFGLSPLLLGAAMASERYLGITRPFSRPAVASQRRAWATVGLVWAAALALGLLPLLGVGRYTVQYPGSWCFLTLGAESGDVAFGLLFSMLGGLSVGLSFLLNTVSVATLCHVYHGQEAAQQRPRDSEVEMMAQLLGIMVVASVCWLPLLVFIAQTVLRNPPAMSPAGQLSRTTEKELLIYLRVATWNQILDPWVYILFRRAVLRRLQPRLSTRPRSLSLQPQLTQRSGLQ

The next experiment addresses T2, Progesterone receptor (Homo sapiens, UniProt P06401).
T2 sequence (P06401 whole entry): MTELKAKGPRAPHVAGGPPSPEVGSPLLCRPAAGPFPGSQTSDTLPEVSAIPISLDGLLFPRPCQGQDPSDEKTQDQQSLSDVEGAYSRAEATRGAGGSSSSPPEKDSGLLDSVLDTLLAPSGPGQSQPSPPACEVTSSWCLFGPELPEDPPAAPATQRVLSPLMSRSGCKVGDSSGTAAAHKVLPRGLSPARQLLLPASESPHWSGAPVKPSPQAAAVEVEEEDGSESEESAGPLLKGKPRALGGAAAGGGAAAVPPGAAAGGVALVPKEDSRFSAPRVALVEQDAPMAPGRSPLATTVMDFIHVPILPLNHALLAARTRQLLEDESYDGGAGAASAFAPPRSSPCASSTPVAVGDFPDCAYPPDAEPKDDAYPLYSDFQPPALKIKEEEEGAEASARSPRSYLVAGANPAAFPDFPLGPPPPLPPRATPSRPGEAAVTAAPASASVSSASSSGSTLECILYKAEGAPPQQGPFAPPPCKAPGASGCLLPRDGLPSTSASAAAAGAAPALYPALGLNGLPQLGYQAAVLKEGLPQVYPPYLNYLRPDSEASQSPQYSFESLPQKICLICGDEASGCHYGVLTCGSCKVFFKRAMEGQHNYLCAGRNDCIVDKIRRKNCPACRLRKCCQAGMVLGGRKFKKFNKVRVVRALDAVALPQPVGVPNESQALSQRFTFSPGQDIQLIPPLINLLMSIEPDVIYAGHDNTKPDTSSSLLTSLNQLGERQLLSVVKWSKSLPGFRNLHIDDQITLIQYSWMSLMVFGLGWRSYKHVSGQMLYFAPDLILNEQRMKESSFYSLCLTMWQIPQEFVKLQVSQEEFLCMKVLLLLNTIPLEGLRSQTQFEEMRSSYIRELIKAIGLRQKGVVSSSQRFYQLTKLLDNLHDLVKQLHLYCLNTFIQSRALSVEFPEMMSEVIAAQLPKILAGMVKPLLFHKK
It counts as functional.

Experiment [1] has as its target 5-hydroxytryptamine receptor 2B (Homo sapiens, UniProt P41595). In kind it is functional, cell-based.
Experiment [2] deals with Sodium-dependent noradrenaline transporter (Homo sapiens, UniProt P23975).
The target of the next experiment is Cannabinoid receptor 1 (Homo sapiens, UniProt P21554). In kind it is functional, cell-based.
Experiment [3] deals with Growth hormone secretagogue receptor type 1 (Homo sapiens, UniProt Q92847).
Experiment [4] concerns the target T3, Type-1 angiotensin II receptor (Homo sapiens, UniProt P30556).
T3 sequence (P30556 whole entry): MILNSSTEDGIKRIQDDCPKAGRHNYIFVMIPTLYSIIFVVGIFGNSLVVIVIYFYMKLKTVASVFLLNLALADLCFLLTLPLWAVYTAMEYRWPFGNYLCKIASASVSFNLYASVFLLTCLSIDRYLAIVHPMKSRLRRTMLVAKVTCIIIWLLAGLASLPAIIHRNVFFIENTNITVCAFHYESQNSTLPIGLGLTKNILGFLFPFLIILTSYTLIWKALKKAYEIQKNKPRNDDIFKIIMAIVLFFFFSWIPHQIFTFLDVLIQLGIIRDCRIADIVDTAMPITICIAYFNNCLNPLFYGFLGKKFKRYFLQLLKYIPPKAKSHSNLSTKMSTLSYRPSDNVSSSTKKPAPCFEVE

The target in experiment [5] is T4, Gastrin/cholecystokinin type B receptor (Homo sapiens, UniProt P32239).
T4 sequence (P32239 whole entry): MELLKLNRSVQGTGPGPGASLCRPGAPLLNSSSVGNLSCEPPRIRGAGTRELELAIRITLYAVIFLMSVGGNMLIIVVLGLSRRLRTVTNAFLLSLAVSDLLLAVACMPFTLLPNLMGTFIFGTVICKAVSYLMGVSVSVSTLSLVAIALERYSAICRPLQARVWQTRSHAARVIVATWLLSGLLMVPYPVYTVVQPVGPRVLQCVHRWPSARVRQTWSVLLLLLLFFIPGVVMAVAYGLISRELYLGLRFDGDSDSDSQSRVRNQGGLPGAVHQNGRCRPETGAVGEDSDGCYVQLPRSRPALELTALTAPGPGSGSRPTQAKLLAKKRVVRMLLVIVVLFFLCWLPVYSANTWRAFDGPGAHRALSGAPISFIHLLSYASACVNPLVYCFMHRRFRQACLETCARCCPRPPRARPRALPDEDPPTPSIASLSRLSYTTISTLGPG

The target in experiment [6] is 5-hydroxytryptamine receptor 2A (Homo sapiens, UniProt P28223). In kind it is functional, cell-based.
Further: assay procedure not described here.

Growth hormone secretagogue receptor type 1, sequence (Q92847 whole entry): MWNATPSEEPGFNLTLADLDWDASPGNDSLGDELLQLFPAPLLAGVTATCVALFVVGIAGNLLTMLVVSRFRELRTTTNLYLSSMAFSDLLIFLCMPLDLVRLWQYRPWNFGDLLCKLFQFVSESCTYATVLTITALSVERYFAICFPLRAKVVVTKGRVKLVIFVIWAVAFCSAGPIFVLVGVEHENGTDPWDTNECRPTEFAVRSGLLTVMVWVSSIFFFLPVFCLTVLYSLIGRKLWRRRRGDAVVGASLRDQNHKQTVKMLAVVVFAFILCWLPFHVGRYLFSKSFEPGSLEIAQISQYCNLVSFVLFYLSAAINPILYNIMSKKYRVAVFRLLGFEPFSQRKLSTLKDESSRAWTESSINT
Vasopressin V1a receptor, sequence (P37288 whole entry): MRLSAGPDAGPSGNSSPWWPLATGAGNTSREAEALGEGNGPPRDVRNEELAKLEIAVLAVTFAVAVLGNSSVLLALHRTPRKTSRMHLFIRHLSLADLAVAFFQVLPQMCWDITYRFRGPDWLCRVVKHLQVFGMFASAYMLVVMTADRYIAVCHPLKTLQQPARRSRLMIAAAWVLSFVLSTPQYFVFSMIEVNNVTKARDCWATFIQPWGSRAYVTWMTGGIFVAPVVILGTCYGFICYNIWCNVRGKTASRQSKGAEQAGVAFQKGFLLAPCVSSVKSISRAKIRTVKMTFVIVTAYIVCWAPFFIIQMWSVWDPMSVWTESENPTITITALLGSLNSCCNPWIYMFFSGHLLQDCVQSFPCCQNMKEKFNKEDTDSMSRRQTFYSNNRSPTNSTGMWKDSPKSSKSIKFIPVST
5-hydroxytryptamine receptor 2A, sequence (P28223 whole entry): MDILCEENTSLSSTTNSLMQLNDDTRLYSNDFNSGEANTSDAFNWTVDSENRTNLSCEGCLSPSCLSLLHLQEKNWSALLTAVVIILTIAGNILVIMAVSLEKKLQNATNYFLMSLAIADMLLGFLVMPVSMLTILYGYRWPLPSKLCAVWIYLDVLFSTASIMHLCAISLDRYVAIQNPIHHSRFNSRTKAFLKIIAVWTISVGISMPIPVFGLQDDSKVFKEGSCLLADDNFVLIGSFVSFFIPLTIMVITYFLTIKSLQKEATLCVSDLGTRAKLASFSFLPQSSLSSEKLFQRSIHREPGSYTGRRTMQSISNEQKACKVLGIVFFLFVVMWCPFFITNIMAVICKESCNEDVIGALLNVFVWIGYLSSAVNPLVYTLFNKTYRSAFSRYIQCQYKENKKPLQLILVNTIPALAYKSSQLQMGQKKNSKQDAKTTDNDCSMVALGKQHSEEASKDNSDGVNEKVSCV
Melanocortin receptor 3, sequence (P41968 whole entry): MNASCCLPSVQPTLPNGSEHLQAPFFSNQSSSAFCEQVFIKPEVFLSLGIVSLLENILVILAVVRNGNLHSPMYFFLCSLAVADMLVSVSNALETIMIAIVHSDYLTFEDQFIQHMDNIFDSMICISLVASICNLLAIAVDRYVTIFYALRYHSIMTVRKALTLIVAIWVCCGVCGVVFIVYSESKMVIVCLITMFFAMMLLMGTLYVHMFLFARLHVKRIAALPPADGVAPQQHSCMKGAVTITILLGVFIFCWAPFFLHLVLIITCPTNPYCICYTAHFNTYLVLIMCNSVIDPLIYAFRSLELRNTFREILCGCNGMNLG
D(3) dopamine receptor, sequence (P35462 whole entry): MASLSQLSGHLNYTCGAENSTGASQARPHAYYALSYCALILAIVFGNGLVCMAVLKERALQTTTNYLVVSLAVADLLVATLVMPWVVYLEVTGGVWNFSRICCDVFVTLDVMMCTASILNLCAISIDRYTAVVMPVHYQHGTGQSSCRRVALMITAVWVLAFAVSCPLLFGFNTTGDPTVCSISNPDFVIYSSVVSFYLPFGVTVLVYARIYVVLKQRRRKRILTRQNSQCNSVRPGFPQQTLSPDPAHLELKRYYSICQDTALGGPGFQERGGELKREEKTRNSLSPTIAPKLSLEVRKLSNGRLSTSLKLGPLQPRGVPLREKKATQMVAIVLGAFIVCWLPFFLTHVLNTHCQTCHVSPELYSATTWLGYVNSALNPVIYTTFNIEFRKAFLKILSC
Cannabinoid receptor 1, sequence (P21554 whole entry): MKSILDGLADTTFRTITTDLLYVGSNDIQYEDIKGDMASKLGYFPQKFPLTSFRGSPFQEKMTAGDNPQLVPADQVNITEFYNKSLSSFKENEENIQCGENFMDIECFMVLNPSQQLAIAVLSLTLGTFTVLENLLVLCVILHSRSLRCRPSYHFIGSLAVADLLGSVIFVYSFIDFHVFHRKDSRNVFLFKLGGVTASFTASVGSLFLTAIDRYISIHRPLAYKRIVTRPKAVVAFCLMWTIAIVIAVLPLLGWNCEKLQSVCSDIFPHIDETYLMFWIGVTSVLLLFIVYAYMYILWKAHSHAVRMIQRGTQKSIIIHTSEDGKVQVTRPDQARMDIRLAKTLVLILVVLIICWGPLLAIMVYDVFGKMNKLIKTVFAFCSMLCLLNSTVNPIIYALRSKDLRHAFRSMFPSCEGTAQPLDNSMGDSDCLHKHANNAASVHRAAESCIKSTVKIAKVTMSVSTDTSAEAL
Sodium-dependent noradrenaline transporter, sequence (P23975 whole entry): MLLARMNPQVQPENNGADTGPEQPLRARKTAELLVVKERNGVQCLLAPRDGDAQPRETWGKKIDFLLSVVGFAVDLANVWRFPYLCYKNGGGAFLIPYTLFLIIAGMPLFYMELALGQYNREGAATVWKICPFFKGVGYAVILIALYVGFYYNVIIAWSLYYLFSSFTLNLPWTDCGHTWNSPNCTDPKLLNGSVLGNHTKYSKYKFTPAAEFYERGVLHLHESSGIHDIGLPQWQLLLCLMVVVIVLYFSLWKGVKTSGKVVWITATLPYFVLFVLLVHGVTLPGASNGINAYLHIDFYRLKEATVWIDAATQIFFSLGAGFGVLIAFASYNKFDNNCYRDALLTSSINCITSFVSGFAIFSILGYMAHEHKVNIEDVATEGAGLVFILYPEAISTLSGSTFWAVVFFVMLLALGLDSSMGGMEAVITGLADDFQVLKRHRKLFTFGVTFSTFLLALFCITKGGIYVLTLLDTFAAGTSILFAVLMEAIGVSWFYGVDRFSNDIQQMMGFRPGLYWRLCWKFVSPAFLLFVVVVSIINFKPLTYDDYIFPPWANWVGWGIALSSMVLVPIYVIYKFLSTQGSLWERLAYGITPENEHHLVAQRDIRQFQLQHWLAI
5-hydroxytryptamine receptor 2B, sequence (P41595 whole entry): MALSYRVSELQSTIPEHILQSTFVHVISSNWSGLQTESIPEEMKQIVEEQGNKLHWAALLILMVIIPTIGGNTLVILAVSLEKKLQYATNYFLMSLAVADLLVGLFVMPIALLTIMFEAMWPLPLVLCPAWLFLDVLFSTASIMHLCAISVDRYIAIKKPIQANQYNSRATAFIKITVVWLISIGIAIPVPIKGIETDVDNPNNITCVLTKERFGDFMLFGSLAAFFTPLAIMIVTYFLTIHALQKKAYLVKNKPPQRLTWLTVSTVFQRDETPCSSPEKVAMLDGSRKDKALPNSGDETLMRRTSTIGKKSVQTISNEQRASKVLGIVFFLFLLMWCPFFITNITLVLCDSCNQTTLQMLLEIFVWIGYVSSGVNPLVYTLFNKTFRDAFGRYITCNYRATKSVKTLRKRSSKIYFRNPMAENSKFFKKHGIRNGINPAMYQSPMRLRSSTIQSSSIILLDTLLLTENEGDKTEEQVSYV

As for `CCOc1cc(N)c([N+](=O)[O-])cc1C(=O)NC1CCN(CC2CC=CCC2)CC1` (configuration not stated) [CINITAPRIDE], the AC50 is 0.038 µM at D(3) dopamine receptor; > 30 µM on Thromboxane A2 receptor; > 30 µM on Progesterone receptor; > 30 µM on Vasopressin V1a receptor; 0.19 µM in experiment [1]; 24 µM in experiment [2]. The AC50 at Cannabinoid receptor 1 was > 30 µM; in [3] it was > 30 µM; on Melanocortin receptor 3, > 30 µM; in experiment [4], > 30 µM; in experiment [5] it was > 30 µM; in experiment [6], 0.07 µM.

Consider `CCCCOc1cc(C(=O)NCCN(CC)CC)c2ccccc2n1` [DIBUCAINE], for which the concentration at half-maximal activity (AC50) at D(3) dopamine receptor was > 30 µM; at Thromboxane A2 receptor, > 30 µM; on Progesterone receptor, > 10 µM; at Vasopressin V1a receptor, > 30 µM; in [1] it was > 10 µM; in experiment [2], > 10 µM. For the same molecule, the AC50 on Cannabinoid receptor 1 is > 30 µM; in experiment [3] it was 15.8 µM; at Melanocortin receptor 3 it was > 30 µM; in experiment [4], > 10 µM; in experiment [5], > 30 µM; in experiment [6], > 10 µM.

Turning to `CCCCCN(C)CCC(O)(P(=O)(O)O)P(=O)(O)O` [IBANDRONIC ACID], the concentration at half-maximal activity (AC50) (on D(3) dopamine receptor; on Thromboxane A2 receptor; at Progesterone receptor; on Vasopressin V1a receptor; in [1]; in experiment [2]) was > 30 µM throughout. Further, the AC50 on Cannabinoid receptor 1 is > 30 µM; in experiment [3], > 30 µM; on Melanocortin receptor 3, > 30 µM; in experiment [4], 6.2 µM; in [5] it was > 30 µM; in experiment [6], > 30 µM.

Regarding `C1=Cc2cccc(OCC3CNCCO3)c2C1` (configuration not stated) [INDELOXAZINE], the concentration at half-maximal activity (AC50) at D(3) dopamine receptor is > 30 µM; at Thromboxane A2 receptor it was > 30 µM; on Progesterone receptor it was > 30 µM; on Vasopressin V1a receptor, > 30 µM; in [1], 5.3 µM; in [2], 0.7 µM. Besides, the concentration at half-maximal activity (AC50) at Cannabinoid receptor 1 is > 30 µM; in [3], > 30 µM; at Melanocortin receptor 3, > 30 µM; in experiment [4], > 30 µM; in [5], > 30 µM; in [6], 17 µM.

With `COc1ccc(C(=O)NCc2ccc(OCCN(C)C)cc2)cc1OC` [ITOPRIDE], the half-maximal activity concentration (AC50) on D(3) dopamine receptor is 20 µM; at Thromboxane A2 receptor, > 30 µM; on Progesterone receptor it was > 30 µM; at Vasopressin V1a receptor, > 30 µM; in experiment [1], > 30 µM; in experiment [2] it was > 30 µM. Besides, the half-maximal activity concentration (AC50) (at Cannabinoid receptor 1; in experiment [3]; on Melanocortin receptor 3; in [4]; in [5]; in experiment [6]) was > 30 µM in each case.

On to `O=C(O)Cc1cn(-c2ccccc2)nc1-c1ccc(Cl)cc1` [LONAZOLAC], for which the concentration at half-maximal activity (AC50) (at D(3) dopamine receptor; at Thromboxane A2 receptor; at Progesterone receptor; at Vasopressin V1a receptor; in [1]; in experiment [2]) was > 30 µM in each case. Also, the AC50 is > 30 µM at Cannabinoid receptor 1; > 30 µM in experiment [3]; > 30 µM on Melanocortin receptor 3; > 30 µM in [4]; > 10 µM in experiment [5]; > 30 µM in experiment [6].

In the case of `C#C[C@]1(O)CC[C@H]2[C@@H]3CCC4=CCCC[C@@H]4[C@H]3CC[C@@]21C` [LYNESTRENOL], the AC50 on D(3) dopamine receptor was > 30 µM; at Thromboxane A2 receptor, > 30 µM; on Progesterone receptor it was 5.2 µM; on Vasopressin V1a receptor it was > 30 µM; in experiment [1], > 30 µM; in experiment [2] it was > 30 µM. In addition, the AC50 (on Cannabinoid receptor 1; in experiment [3]; at Melanocortin receptor 3; in experiment [4]; in experiment [5]; in [6]) was > 30 µM throughout.

`CCCCC(C)(O)C/C=C/[C@H]1[C@H](O)CC(=O)[C@@H]1CCCCCCC(=O)OC` (some centres not stated) [MISOPROSTOL]: the AC50 (on D(3) dopamine receptor; on Thromboxane A2 receptor; at Progesterone receptor; on Vasopressin V1a receptor; in experiment [1]; in [2]) was > 30 µM in each case. Besides, the AC50 (on Cannabinoid receptor 1; in experiment [3]; at Melanocortin receptor 3; in experiment [4]; in experiment [5]; in experiment [6]) was > 30 µM each time.

Regarding `O=C(OCCN1CCOCC1)c1cccnc1Nc1cccc(C(F)(F)F)c1` [MORNIFLUMATE], the AC50 is > 30 µM at D(3) dopamine receptor; > 30 µM at Thromboxane A2 receptor; > 30 µM at Progesterone receptor; > 30 µM at Vasopressin V1a receptor; 10 µM in experiment [1]; 17 µM in experiment [2]. The AC50 on Cannabinoid receptor 1 is > 30 µM; in experiment [3], > 30 µM; at Melanocortin receptor 3, > 30 µM; in experiment [4] it was > 30 µM; in [5], > 30 µM; in [6], 2.9 µM.

Take `CCCCCCCCOc1ccccc1C(=O)Nc1ccc(C(=O)OCC[N+](C)(CC)CC)cc1` [OTILONIUM BROMIDE]: the half-maximal activity concentration (AC50) was 2 µM at D(3) dopamine receptor; > 30 µM at Thromboxane A2 receptor; > 30 µM at Progesterone receptor; 13 µM at Vasopressin V1a receptor; 3.1 µM in experiment [1]; 3.3 µM in experiment [2]. Further, the concentration at half-maximal activity (AC50) at Cannabinoid receptor 1 was > 30 µM; in experiment [3], 7.6 µM; at Melanocortin receptor 3 it was 5.1 µM; in [4], 20 µM; in experiment [5], > 1 µM; in experiment [6], 3.9 µM.

In the case of `COc1ccc(C(=O)N2CCN(c3ccc4c(c3)CCC(=O)N4)CC2)cc1OC` [VESNARINONE], the AC50 at D(3) dopamine receptor was > 30 µM; at Thromboxane A2 receptor it was > 30 µM; on Progesterone receptor it was 12 µM; at Vasopressin V1a receptor it was > 30 µM; in experiment [1], > 30 µM; in experiment [2] it was > 30 µM. The AC50 (at Cannabinoid receptor 1; in experiment [3]; at Melanocortin receptor 3; in experiment [4]; in experiment [5]; in [6]) was > 30 µM each time.

The AC50 is the concentration giving half of the maximal activity seen. High values mean activity only at high concentration, low ones activity at low concentration.
